Measurements as given in patent US20240261367A1, “CYCLIC PEPTIDE IMMUNOMODULATORS” (priority 2021, published 2024).

Biological target: T1, PD-1/PD-L1 (Homo sapiens, UniProt Q9NZQ7)
T1 construct: TVMV protease site linker (C); made in house; host or cells: HEK293T cells
Assay: PD-1/PD-L1 Homogenous Time-Resolved Fluorescence (HTRF) binding assay
Conditions: PD-L1-His (10 nM) pre-incubated with inhibitor 15 m, then PD-1-Ig (20 nM)

T1 sequence (Q9NZQ7 18-239): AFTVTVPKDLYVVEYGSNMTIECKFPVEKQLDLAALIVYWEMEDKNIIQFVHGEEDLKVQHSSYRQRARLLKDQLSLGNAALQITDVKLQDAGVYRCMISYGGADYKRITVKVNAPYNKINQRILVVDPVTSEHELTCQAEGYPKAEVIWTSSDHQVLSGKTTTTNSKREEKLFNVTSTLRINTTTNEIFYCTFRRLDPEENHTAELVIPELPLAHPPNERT

IC50 [nM]	Structure (SMILES)
8	CCCC[C@H]1C(=O)N(C)[C@@H](CCCC)C(=O)N[C@@H](CC(C)C)C(=O)N[C@H](C(=O)NCC(=O)N[C@@H](Cc2cn(CCOCCOCCOCCOCCOCCOCCOCCOCCOCCOCCOCCNC(=O)CC[C@H](NC(=O)CCCCCCCCCCCCCCCCC(=O)O)C(=O)O)nn2)C(=O)O)CSCC(=O)N[C@@H](Cc2ccc(O)cc2)C(=O)N(C)[C@@H](C)C(=O)N[C@@H](CC(N)=O)C(=O)N2CCC[C@H]2C(=O)N[C@@H](CNC(=O)OC)C(=O)N[C@@H](CC(C)C)C(=O)N2C[C@H](O)C[C@H]2C(=O)N[C@@H](Cc2c[nH]c3ccccc23)C(=O)N[C@@H](CCNC(=O)OCC)C(=O)N[C@@H](Cc2cn(CC(=O)O)c3ccccc23)C(=O)N1C [Example 7012]
49	CCCC[C@H]1C(=O)N(C)[C@@H](CCCC)C(=O)N[C@@H](CC(C)C)C(=O)N[C@H](C(=O)NCC(=O)N[C@@H](Cc2cn(CCOCCOCCOCCOCCOCCOCCOCCOCCOCCOCCOCCNC(=O)CC[C@H](NC(=O)CCCCCCCCCCCCCCCCC(=O)O)C(=O)O)nn2)C(=O)O)CSCC(=O)N[C@@H](Cc2ccc(O)cc2)C(=O)N(C)[C@@H](C)C(=O)N[C@@H](CC(N)=O)C(=O)N2CCC[C@H]2C(=O)N[C@@H](CNC(=O)OCC)C(=O)N[C@@H](CC(C)C)C(=O)N2C[C@H](O)C[C@H]2C(=O)N[C@@H](Cc2c[nH]c3ccccc23)C(=O)N[C@@H](CCNC(=O)OC)C(=O)N[C@@H](Cc2cn(CC(=O)O)c3ccccc23)C(=O)N1C [Example 7013]
8.6	CCCC[C@H]1C(=O)N(C)[C@@H](CCCC)C(=O)N[C@@H](CC(C)C)C(=O)N[C@H](C(=O)NCC(=O)N[C@@H](Cc2cn(CCOCCOCCOCCOCCOCCOCCOCCOCCOCCOCCOCCNC(=O)CC[C@H](NC(=O)CCCCCCCCCCCCCCCCC(=O)O)C(=O)O)nn2)C(=O)O)CSCC(=O)N[C@@H](Cc2ccc(O)cc2)C(=O)N(C)[C@@H](C)C(=O)N[C@@H](CC(N)=O)C(=O)N2CCC[C@H]2C(=O)N[C@@H](CNC(=O)OCC)C(=O)N[C@@H](CC(C)C)C(=O)N2C[C@H](O)C[C@H]2C(=O)N[C@@H](Cc2c[nH]c3ccccc23)C(=O)N[C@@H](CCNC(=O)OCc2oc(=O)oc2C)C(=O)N[C@@H](Cc2cn(CC(=O)O)c3ccccc23)C(=O)N1C [Example 7014]
34	CCCC[C@H]1C(=O)N(C)[C@@H](CCCC)C(=O)N[C@@H](CC(C)C)C(=O)N[C@H](C(=O)NCC(=O)N[C@@H](Cc2cn(CCOCCOCCOCCOCCOCCOCCOCCOCCOCCOCCOCCNC(=O)CC[C@H](NC(=O)CCCCCCCCCCCCCCCCC(=O)OCc3oc(=O)oc3C)C(=O)O)nn2)C(=O)O)CSCC(=O)N[C@@H](Cc2ccc(O)cc2)C(=O)N(C)[C@@H](C)C(=O)N[C@@H](CC(N)=O)C(=O)N2CCC[C@H]2C(=O)N[C@@H](CNC(=O)OCC)C(=O)N[C@@H](CC(C)C)C(=O)N2C[C@H](O)C[C@H]2C(=O)N[C@@H](Cc2c[nH]c3ccccc23)C(=O)N[C@@H](CCN)C(=O)N[C@@H](Cc2cn(CC(=O)O)c3ccccc23)C(=O)N1C [Example 7016]
12	CCCC[C@H]1C(=O)N(C)[C@@H](CCCC)C(=O)N[C@@H](CC(C)C)C(=O)N[C@H](C(=O)NCC(=O)N[C@@H](Cc2cn(CCOCCOCCOCCOCCOCCOCCOCCOCCOCCOCCOCCNC(=O)CC[C@H](NC(=O)CCCCCCCCCCCCCCCCC(=O)O)C(=O)O)nn2)C(=O)O)CSCC(=O)N[C@@H](Cc2ccc(O)cc2)C(=O)N(C)[C@@H](C)C(=O)N[C@@H](CC(N)=O)C(=O)N2CCC[C@H]2C(=O)N[C@@H](CNCC(O)C(O)C(O)C(O)C(O)CO)C(=O)N[C@@H](CC(C)C)C(=O)N2C[C@H](O)C[C@H]2C(=O)N[C@@H](Cc2c[nH]c3ccccc23)C(=O)N[C@@H](CCN)C(=O)N[C@@H](Cc2cn(CC(=O)O)c3ccccc23)C(=O)N1C (some centres unmarked) [Example 8001]
